Experimental data taken from the NIST ThermoML archive (doi:10.1021/je500792x).

Assay: xn = mol fraction of the nth substance listed
Conditions: Gas, Buoyancy - hydrostatic balance with magnetic suspension - two sinkers

C [methane] + CCC
Conditions	mass density [kg/m3]
248.15 K, 120.09 kPa, x1 = 0.5069	1.7641
248.15 K, 129.19 kPa, x1 = 0.2658	2.3527
248.15 K, 129.2 kPa, x1 = 0.2658	2.353
248.15 K, 141.7 kPa, x1 = 0.2658	2.5862
248.15 K, 159.47 kPa, x1 = 0.2658	2.9223
248.15 K, 183.4 kPa, x1 = 0.5069	2.7164
248.15 K, 184.56 kPa, x1 = 0.2658	3.3988
248.15 K, 188.16 kPa, x1 = 0.2658	3.4688
248.15 K, 217.78 kPa, x1 = 0.2658	4.0405
248.15 K, 220.8 kPa, x1 = 0.2658	4.0982
248.15 K, 244.4 kPa, x1 = 0.5069	3.6498
248.15 K, 251.13 kPa, x1 = 0.2658	4.6926
248.15 K, 251.49 kPa, x1 = 0.2658	4.7012
248.15 K, 271.99 kPa, x1 = 0.2658	5.106
248.15 K, 275.99 kPa, x1 = 0.2658	5.1859
248.15 K, 303.31 kPa, x1 = 0.5069	4.5661
248.15 K, 360.5 kPa, x1 = 0.5069	5.4702
248.15 K, 424.87 kPa, x1 = 0.5069	6.5055
248.16 K, 96.6 kPa, x1 = 0.2658	1.7469
248.16 K, 390.04 kPa, x1 = 0.7498	4.4826
248.16 K, 500.33 kPa, x1 = 0.7498	5.7986
248.16 K, 580.7 kPa, x1 = 0.7498	6.7717
248.16 K, 685.07 kPa, x1 = 0.7498	8.0551
248.16 K, 786.24 kPa, x1 = 0.7498	9.3205
248.16 K, 835.6 kPa, x1 = 0.7498	9.9461
248.17 K, 276.07 kPa, x1 = 0.7498	3.1456
273.15 K, 123.94 kPa, x1 = 0.2658	2.0343
273.15 K, 149.35 kPa, x1 = 0.2658	2.4607
273.15 K, 167.49 kPa, x1 = 0.2658	2.7678
273.15 K, 198.96 kPa, x1 = 0.2658	3.3031
273.15 K, 218.04 kPa, x1 = 0.5069	2.9261
273.15 K, 242.18 kPa, x1 = 0.2658	4.0482
273.15 K, 247.99 kPa, x1 = 0.2658	4.1483
273.15 K, 258.4 kPa, x1 = 0.5069	3.4829
273.15 K, 262.29 kPa, x1 = 0.5069	3.5352
273.15 K, 269.26 kPa, x1 = 0.5069	3.6315
273.15 K, 277.28 kPa, x1 = 0.5069	3.7427
273.15 K, 300.07 kPa, x1 = 0.2658	5.0612
273.15 K, 309 kPa, x1 = 0.5069	4.1836
273.15 K, 321.34 kPa, x1 = 0.5069	4.3576
273.15 K, 323.08 kPa, x1 = 0.5069	4.3804
273.15 K, 340.35 kPa, x1 = 0.5069	4.6226
273.15 K, 344.34 kPa, x1 = 0.2658	5.85
273.15 K, 347.43 kPa, x1 = 0.2658	5.905
273.15 K, 396.65 kPa, x1 = 0.2658	6.7965
273.15 K, 401.7 kPa, x1 = 0.2658	6.8905
273.15 K, 402.73 kPa, x1 = 0.5069	5.504
273.15 K, 406.45 kPa, x1 = 0.2658	6.9764
273.15 K, 409.05 kPa, x1 = 0.5069	5.5939
273.15 K, 415.33 kPa, x1 = 0.5069	5.6832
273.15 K, 430.8 kPa, x1 = 0.2658	7.425
273.15 K, 441.3 kPa, x1 = 0.5069	6.0553
273.15 K, 445.43 kPa, x1 = 0.2658	7.6956
273.15 K, 453.52 kPa, x1 = 0.5069	6.2301
273.15 K, 486.1 kPa, x1 = 0.2658	8.4581
273.15 K, 491.06 kPa, x1 = 0.5069	6.7718
273.15 K, 491.24 kPa, x1 = 0.2658	8.5547
273.15 K, 491.73 kPa, x1 = 0.2658	8.5641
273.15 K, 492.46 kPa, x1 = 0.7498	5.1329
